According to patent publication US8247211B2, “Glycopeptide antibiotics” (American Cyanamid Company, priority 2001, dated 2012):
In brackets after ≈: the same amount, converted by molar mass.

Legend:
[1] = test system: Enterococcus sp.; experiment: In vitro antibacterial evaluation: minimum inhibitory concentration (MIC), broth dilution method; type: cell-based; conditions: broth dilution, 18 hours at 35° C.
Procedure, shortened: (§1)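 NCCLS M7-A2 broth dilution; Muller-Hinton II […]; 5×10^5 CFU/mL; 64-0.06 μg/mL. MIC = lowest concentration with no growth.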

[2] = test system: Escherichia coli; experiment: as above; type: cell-based; conditions: 5×10^5 CFU/mL, 18 hours at 35° C.
Procedure, shortened: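 Following NCCLS approved standard M7-A2, compounds are serially diluted from 64 to 0.06 μg/mL in Muller-Hinton II […] and inoculated at 5×10^5 CFU/mL; the MIC is the minimum concentration at which growth is inhibited.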

[3] = test system: Staphylococcus sp.; experiment: as above; type: cell-based; conditions: for MIC Staphylococcus aureus (ATCC 29213): strain ATCC 29213; for MIC Staphylococcus aureus (GC 3051): strain GC 3051; for MIC Staphylococcus aureus (GC 3053): strain GC 3053; for MIC Staphylococcus aureus (GC 4541): strain GC 4541; for MIC Staphylococcus aureus (GC 4542): strain GC 4542; for MIC Staphylococcus aureus (GC 4545): strain GC 4545; for MIC Staphylococcus haemolyticus (GC 4546): strain GC 4546; for MIC Coagulase Negative Staphylococcus (GC 4547): strain GC 4547; for MIC Coagulase Negative Staphylococcus (GC 4548): strain GC 4548; for MIC Coagulase Negative Staphylococcus (GC 4549): strain GC 4549; for MIC Coagulase Negative Staphylococcus (GC 4551): strain GC 4551; for MIC Coagulase Negative Staphylococcus (GC 6257): strain GC 6257
Procedure, shortened: as §1

[4] = test system: Streptococcus sp.; experiment: as above; type: cell-based; conditions: broth dilution, 18 hours at 35° C.
Procedure, shortened: as §1

[5] = test system: Enterococcus faecalis (GC 6189), vancomycin resistant strain; experiment: Acute lethal infection in mice (ED50); type: in vivo; conditions: female CD-1 mice, intraperitoneal challenge, intravenous dose 30 min. after infection, 7 day survival ratios
Procedure, shortened: (§2)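 Female CD-1 mice challenged intraperitoneally with a bacterial dose lethal to untreated controls within 24-48 h. Compound given intravenously in saline or 5% dextrose 30 min post-infection, five mice per dose; ED50 from 7-day survival pooled over 3 tests.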

[6] = test system: Staphylococcus aureus-SMITH (GC 4543); experiment: Acute lethal infection in mice (ED50); type: in vivo; conditions: female CD-1 mice, intraperitoneal challenge, intravenous dose 30 min. after infection, 7 day survival ratios
Procedure, shortened: as §2

[7] = test system: Streptococcus pneumoniae (GC 1894), penicillin resistant strain; experiment: Acute lethal infection in mice (ED50); type: in vivo; conditions: female CD-1 mice, intraperitoneal challenge, intravenous dose 30 min. after infection, 7 day survival ratios
Procedure, shortened: as §2

[8] = type: in vivo; conditions: mice, 20 mg/kg intravenously daily for 9 days, serum on day 10
Experimental: 20-day-old CD-1 mice were divided into a vehicle control group (5 mice) and a treatment group (5 mice). Samples of glycopeptide antibiotics were administered at 20 mg/kg intravenously daily for 9 days. Animals were necropsied on day 10 Sera were analyzed for BUN (blood urea nitrogen), creatinine, AST (aspartic aminotransferase), and ALT (alanine aminotransferase) by routine, standard, automated methods using an Hitachi 747 chemistry analyzer.

[9] = Anatomic pathology (heart and kidney histopathology) in mice; type: in vivo, CD-1 mice; conditions: 20 mg/kg intravenously daily for 9 days, microscopic histopathology on day 10
Procedure, shortened: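 Juvenile CD-1 mice (20 days old; 5 vehicle, 5 treated) received glycopeptide antibiotic 20 mg/kg i.v. daily for 9 days. Necropsied tissues formalin-fixed, paraffin-embedded, H&E stained and examined microscopically; findings graded slight to severe versus controls.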

[10] = broth dilution, 18 hours at 35° C.

## CC(c1ccccc1)C1NC(=O)CNC(=O)C(CO)NC(=O)C(C(O)C2CNC(=N)N2C2OC(CO)C(O)C(O)C2O)NC(=O)C(C(O)C2CNC(=N)N2)NC(=O)C(Cc2ccc(OC3OC(CO)C(OC4OC5COC6(OC5C(O)C4O)C4CC5CC(C4)CC6C5)C(O)C3O)cc2)NC1=O (stereo not drawn) [Example 105, Cyclo[glycyl-β-methylphenylalanyl-O-[4-O-[4,6-O-(2-adamantylidene)hexopyranosyl]hexopyranosyl]tyrosyl-3-(2-iminoimidazolidin-4-yl)seryl-3-(3-hexopyranosyl-2-iminoimidazoliclin-4-yl)serylseryl]]
[1]; Enterococcus avium (GC 4558)
  MIC Enterococcus avium (GC 4558): 1 to 2 µg/mL
[1]; Enterococcus faecalis (ATCC 29212)
  MIC Enterococcus faecalis (ATCC 29212): 1 to 2 µg/mL
[1]; Enterococcus faecalis (GC 2242)
  MIC Enterococcus faecalis (GC 2242): 0.5 to 2 µg/mL
[1]; Enterococcus faecalis (GC 2691)
  MIC Enterococcus faecalis (GC 2691): 1 to 2 µg/mL
[1]; Enterococcus faecalis (GC 3059)
  MIC Enterococcus faecalis (GC 3059): 1 to 2 µg/mL
[1]; Enterococcus faecalis (GC 4552)
  MIC Enterococcus faecalis (GC 4552): 1 to 2 µg/mL
[1]; Enterococcus faecalis (GC 4553)
  MIC Enterococcus faecalis (GC 4553): 1 to 2 µg/mL
[1]; Enterococcus faecalis (GC 4554)
  MIC Enterococcus faecalis (GC 4554): 1 to 2 µg/mL
[1]; Enterococcus faecalis (GC 6189)
  MIC Enterococcus faecalis (GC 6189): 1 to 2 µg/mL
[1]; Enterococcus faecium (GC 2243)
  MIC Enterococcus faecium (GC 2243): 1 to 2 µg/mL
[1]; Enterococcus faecium (GC 4556)
  MIC Enterococcus faecium (GC 4556): 0.5 to 2 µg/mL
[1]; Enterococcus faecium (GC 4557)
  MIC Enterococcus faecium (GC 4557): 1 to 2 µg/mL
[1]; 5×10^5 CFU/mL
  MIC Enterococccus avium (GC 4558): 1 to 2 µg/mL
  MIC Enterococccus faecalis (ATCC 29212): 1 to 2 µg/mL
  MIC Enterococccus faecalis (GC 2691): 1 to 2 µg/mL
  MIC Enterococccus faecalis (GC 3059): 1 to 2 µg/mL
  MIC Enterococccus faecalis (GC 4552): 1 to 2 µg/mL
  MIC Enterococccus faecalis (GC 4553): 1 to 2 µg/mL
  MIC Enterococccus faecalis (GC 4554): 1 to 2 µg/mL
  MIC Enterococccus faecalis (GC 6189): 1 to 2 µg/mL
  MIC Enterococccus faecium (GC 2243): 1 to 2 µg/mL
  MIC Enterococccus faecium (GC 4556): 0.5 to 2 µg/mL
  MIC Enterococccus faecium (GC 4557): 1 to 2 µg/mL
  MIC Enterococcus faecalis (GC 2242): 0.5 to 2 µg/mL
[2]
  MIC Escherichia coli (ATCC 25922): 16 to 32 µg/mL
  MIC Escherichia coli (GC 4559): 32 µg/mL (≈ 22.4 µM)
  MIC Escherichia coli (GC 4560): 0.5 to 2 µg/mL
[3]
  MIC Staphylococcus aureus (ATCC 29213): <0.5 to 1 µg/mL
  MIC Staphylococcus aureus (GC 3051): 0.5 to 1 µg/mL
  MIC Staphylococcus aureus (GC 3053): 1 to 2 µg/mL
  MIC Staphylococcus aureus (GC 4541): <0.5 to 1 µg/mL
  MIC Staphylococcus aureus (GC 4542): 0.5 to 1 µg/mL
  MIC Staphylococcus aureus (GC 4545): <0.5 to 1 µg/mL
  MIC Staphylococcus haemolyticus (GC 4546): <0.5 to 1 µg/mL
  MIC Coagulase Negative Staphylococcus (GC 4547): 0.5 to 1 µg/mL
  MIC Coagulase Negative Staphylococcus (GC 4548): <0.5 to 1 µg/mL
  MIC Coagulase Negative Staphylococcus (GC 4549): 0.5 to 1 µg/mL
  MIC Coagulase Negative Staphylococcus (GC 4551): <0.5 to 1 µg/mL
  MIC Coagulase Negative Staphylococcus (GC 6257): 0.5 to 1 µg/mL
[3]; [10]
  MIC Staphylococcus aureus (ATCC 29213): <0.5 to 1 µg/mL
  MIC Staphylococcus aureus (GC 3051): 0.5 to 1 µg/mL
  MIC Staphylococcus aureus (GC 3053): 1 to 2 µg/mL
  MIC Staphylococcus aureus (GC 4541): <0.5 to 1 µg/mL
  MIC Staphylococcus aureus (GC 4542): 0.5 to 1 µg/mL
  MIC Staphylococcus aureus (GC 4545): <0.5 to 1 µg/mL
  MIC Staphylococcus haemolyticus (GC 4546): <0.5 to 1 µg/mL
  MIC Coagulase Negative Staphylococcus (GC 4547): 0.5 to 1 µg/mL
  MIC Coagulase Negative Staphylococcus (GC 4548): <0.5 to 1 µg/mL
  MIC Coagulase Negative Staphylococcus (GC 4549): 0.5 to 1 µg/mL
  MIC Coagulase Negative Staphylococcus (GC 4551): <0.5 to 1 µg/mL
  MIC Coagulase Negative Staphylococcus (GC 6257): 0.5 to 1 µg/mL
[4]; Streptococcus agalactiae (GC 4564)
  MIC Streptococcus agalactiae (GC 4564): <0.06 to 0.25 µg/mL
[4]; Streptococcus pneumoniae (ATCC 6301)
  MIC Streptococcus pneumoniae (ATCC 6301): <0.06 µg/mL
[4]; Streptococcus pneumoniae (GC 1894)
  MIC Streptococcus pneumoniae (GC 1894): <0.06 µg/mL
[4]; Streptococcus pneumoniae (GC 4565)
  MIC Streptococcus pneumoniae (GC 4565): <0.06 µg/mL
[4]; Streptococcus pyogenes (GC 4563)
  MIC Streptococcus pyogenes (GC 4563): <0.06 to 0.12 µg/mL
[4]; 5×10^5 CFU/mL
  MIC Streptococcus agalactiae (GC 4564): <0.06 to 0.25 µg/mL
  MIC Streptococcus pneumoniae (GC 1894): <0.06 µg/mL
  MIC Streptococcus pneumoniae (GC 4565): <0.06 µg/mL
  MIC Streptococcus pneumonine (ATCC 6301): <0.06 µg/mL
  MIC Streptococcus pyogenes (GC 4563): <0.06 to 0.12 µg/mL
[5]
  median effective dose (ED50), Enterococcus faecalis (GC 6189): 1.8-1.96
[6]
  median effective dose (ED50), Staphylococcus aureus-SMITH (GC 4543): 0.04-0.08
[7]
  median effective dose (ED50), Streptococcus pneumoniae (GC 1894): 0.04 mg/kg
[8]
  Clinical Chemistry (Day 10) % of Control, ALT: +480%
  Clinical Chemistry (Day 10) % of Control, AST: +205%
  Clinical Chemistry (Day 10) % of Control, BUN: +35%
[9]
  Anatomical Pathology (Day 10), Heart: +++
  Anatomical Pathology (Day 10), Kidney: +++
